Patent publication US20130011921A1, “METHOD FOR PRODUCTION OF ARTIFICIAL PLURIPOTENT STEM CELL” (SAITAMA MEDICAL UNIVERSITY, priority 2010, published 2013)
“Also recorded” adds a separate entry of the source.

Tests used:
Nanog-GFP MEF [1] = assay: Induction of mouse iPS cells, Puro-resistant AP-positive colonies; format: cell-based
Protocol: (§1) For retroviral introduction, a retroviral vector expressing each pluripotency inducer (Oct-3/4, Sox2, KLF4, and c-Myc) was introduced into packaging cells, PLAT-E cells (Kitamura T, et al. (2003) Exp Hematol 31:1007-1014). Culture supernatants of PLAT-E cells were each recovered two days after gene introduction, and filtered through a 0.45 μm cellulose acetate. Polybrene was then added to a final concentration […], an equal amount of each culture supernatant was mixed, and the mixture was added to Nanog-GFP MEF (Okita K, Ichisaka T, Yamanaka S. (2007) nature 448:313-317) for viral infection. Nanog-GFP MEF is a cell being a mouse embryonic fibroblast (MEF) to which a BAC was introduced, wherein a GFP-IRES-Puro^r cassette is inserted into the BAC carrying the mouse Nanog gene.
On Day 4 after retroviral infection, these were seeded on STO feeder cells with suppressed proliferation ability from mitomycin C (SIGMA: M4287) treatment (seeded at 2×10^3 cells/ml for cells infected with 4F (c-Myc), 3.5×10^4 cells/ml for 3F), and on the next day cultured in mouse ES cell medium (Nishimoto M, et al. (1999) Mol Cell Biol 19:5453-5465). Thereafter the medium was replaced every two days, replaced with puromycin (Puro)-containing mouse ES cell medium (Puro to a final concentration of […]) on Day 17 after infection, and cultured for eight more days. Alkaline phosphatase (AP) staining was then performed. Nicotinamide was added simultaneously with retroviral infection to a final concentration 4 mM, and then added at the same concentration for every medium exchange.
In order to investigate the optimal treatment time of nicotinamide, nicotinamide was added under each conditions of until Day 24 after retroviral infection (Nam 0-24d), until Day 4 after retroviral infection (Nam 0-4d), and from Day 4 to Day 24 after retroviral infection (Nam 4-24d), and iPS cells were induced by 4F (c-Myc). Experimental method other than the […] treatment time was in accordance with Test 1.
Consequently, resveratrol which activates sirtuin (SIRT1) was added to the medium instead of nicotinamide to investigate the induction effect of iPS cells. Experimental method was in accordance with Test 2, except that resveratrol (Res) was added to the medium to a final concentration 100 μM.

Nanog-GFP MEF [2] = assay: GFP observation of induced mouse iPS cells with a fluorescence microscope; format: cell-based; settings: 4F (c-Myc)
Protocol: as §1

Nanog-GFP MEF [3] = assay: Inspection on Day 4 after retroviral infection (colonies, cell count, AP staining, undifferentiated markers); format: cell-based, mouse
Protocol: As a result, iPS cell-like colonies were recognized in the Nam treatment group, but not in the untreated control group. (FIGS. 4 and 5A). Next, in order to investigate the influence of nicotinamide on Day 4 after infection, the number of cells was counted and AP staining was performed. […] Further, as a result of investigating the expression of various undifferentiated markers, it became clear that the expression of undifferentiated markers was increased compared to the non-treatment group due to nicotinamide treatment (data not shown). Accordingly, it became clear that iPS cell induction was already promoted on Day 4 after infection by nicotinamide treatment.

Nanog-GFP MEF [4] = assay: Induction of mouse iPS cells in the presence of MEK inhibitor and GSK-3 inhibitor (2i method), fluorescence microscope; format: cell-based; settings: 4F (c-Myc); nicotinamide treatment followed by 2i method; FIGS. 7C and 7D
Protocol: Nanog-GFP MEF was subjected to forced expression of 4F(c-Myc) retrovirally. These were seeded on feeder cells on Day 4 after retroviral infection, and cultured in mouse ES cell medium from the following day. This was replaced with a serum-free mouse ES cell medium comprising PD0325901 (1 μM) and CHIR99021 (3 μM) (2i medium) from Day 12 after infection. […] As the control zone, culturing was also performed in a serum-free mouse ES cell medium without PD0325901 and CHIR99021 from 12 days after infection for four days. It was confirmed that true iPS cells are increased by the 2i method (FIGS. 7A and 7B).

Nanog-GFP MEF [5] = assay: 2i method timing and combination with nicotinamide, Puro-resistant AP-positive colonies; format: cell-based, mouse
Protocol: Nanog-GFP MEF was subjected to forced expression of 4F(c-Myc) retrovirally. These were seeded on feeder cells on Day 4 after retroviral infection, and cultured in mouse ES cell medium from the following day until replaced with the 2i medium. Culturing in the 2i medium was initiated on (1) Day 5, (2) Day 7, (3) Day 9, (4) Day 11, (5) Day 13, and (6) Day 15 after retroviral infection, and continued until Day 17 after infection. From Day 17 after infection, drug selection by Puro was performed for eight days, and then AP staining was performed. […] Next, in order to compare when the nicotinamide treatment is performed simultaneously with retroviral infection and when it is performed after one day post infection, investigation was performed in accordance with the conditions of Test 5 (1).

human fibroblasts = assay: Induction of human iPS cells in the presence of nicotinamide, AP-positive colonies; format: cell-based
Protocol: For retroviral introduction, retroviral vectors expressing each pluripotency inducer (Oct-3/4, Sox2, KLF4, and c-Myc) were introduced into packaging cells, PLAT-GP cells (Morita S, et al. (2000) Gene Therapy 7:1063-1066). Culture supernatants of PLAT-GP cells were each recovered two days after gene introduction, and filtered through a 0.45 μm cellulose acetate. Polybrene was then added to a final concentration […], an equal amount of each culture supernatant was mixed, and the mixture was added to human fibroblasts for viral infection. These were seeded on feeder cells on Day 6 after retroviral infection (4F (c-Myc): 2.5×10^4; 4F (L-Myc): 5.0×10^4), and cultured in human ES cell medium on the following day (Takahashi K, et al (2007) Cell 131:861-872). Thereafter the medium was exchanged every two days, and cultured until thirty days after infection. Alkaline phosphatase (AP) staining was then performed, and the number of AP-positive colonies was counted. Nicotinamide was added simultaneously with retroviral infection to a final concentration 4 mM, and then added at the same concentration for every medium exchange until Day 6 after infection. The control zone was cultured to thirty days after infection without adding nicotinamide.

Q: With `NC(=O)c1cccnc1` [nicotinamide] as the compound, how does the “number of Puro-resistant colonies” value (Nanog-GFP MEF [1]; 4F (c-Myc), nicotinamide added Day 0 to Day 4 (Nam 0-4d), FIG. 3) read?
A: Its value is “similarly significantly increased”.

Q: What about the “number of Puro-resistant colonies” value (Nanog-GFP MEF [1]; 4F (c-Myc), nicotinamide added Day 0 to Day 24 (Nam 0-24d), FIG. 3) of the same compound?
A: Its value is “significantly increased”.

Q: What about the “effect of increasing the number of Puro-resistant colonies” value (Nanog-GFP MEF [1]; 4F (c-Myc), nicotinamide added on or after Day 4 (Nam 4-24d), FIG. 3) of the same compound?
A: Its value is “barely obtained”.

Q: What about the “increase in induction efficiency (Puro-resistant AP-positive colonies)” value (Nanog-GFP MEF [1]; cells infected with 3F (without c-Myc), nicotinamide 4 mM, FIG. 1C) of the same compound?
A: The value was “not seen”.

Q: And the “number of colonies showing resistance to puromycin (Puro-resistant AP-positive colonies)” value (Nanog-GFP MEF [1]; cells infected with 4F (c-Myc), nicotinamide 4 mM from infection, at every medium exchange, FIG. 1A, 1B)?
A: The value was “significantly increased”.

Q: And the “GFP color development vs non-administration group” value (Nanog-GFP MEF [2]; after drug selection by Puro, FIG. 2 lower column)?
A: The value was “more intense color development”.

Q: What about the “GFP color development vs nicotinamide-untreated control cells” value (Nanog-GFP MEF [2]; without drug selection by Puro, FIG. 2 upper column) of the same compound?
A: The value was “slightly more intense color development”.

Q: What about the “number of AP-positive colonies” value (Nanog-GFP MEF [3]; Day 4 after infection, FIG. 5C) of the same compound?
A: The value was “significant increase”.

Q: And the number of cells (Nanog-GFP MEF [3]; Day 4 after infection, vs non-treatment cell group, FIG. 5B)?
A: The number of cells was “increase”.

Q: What about the “expression of undifferentiated markers” value (Nanog-GFP MEF [3]; Day 4 after infection, vs non-treatment group, data not shown) of the same compound?
A: The value was “increased”.

Q: What about the iPS cell-like colonies (Nanog-GFP MEF [3]; Day 4 after retroviral infection, vs untreated control group, FIGS. 4 and 5A) of the same compound?
A: Its iPS cell-like colonies is “recognized”.

Q: What about the “true iPS cells” value (Nanog-GFP MEF [4]) of the same compound?
A: The value was “dramatic increase”.

Q: And the “proportion of true iPS cells” value (Nanog-GFP MEF [5]; nicotinamide 4 mM Day 0 to Day 4 plus 2i method as Test 5 (1), FIG. 9A)?
A: The value was “significantly increased”.

Q: What about the “induction efficiency compared to the conventional method” value (Nanog-GFP MEF [5]; nicotinamide treatment combined with 2i method, FIG. 9) of the same compound?
A: The value was “about 10 times”.

Q: What about the “induction efficiency, nicotinamide Day 1 to Day 4 relative to Day 0 to Day 4” value (Nanog-GFP MEF [5]; with 2i method as Test 5 (1), FIG. 9B) of the same compound?
A: Its value is “three-fold; also recorded: three times or more”.

Q: And the “induction efficiency of iPS cells” value (human fibroblasts; L-Myc as the Myc family gene, 4F (L-Myc), FIG. 10B)?
A: The value was “increased”.

Q: What about the “induction efficiency of iPS cells” value (human fibroblasts; c-Myc as the Myc family gene, 4F (c-Myc), FIG. 10A) of the same compound?
A: Its value is “increased”.

Q: And the “number of AP-positive colonies” value (human fibroblasts; nicotinamide 4 mM until Day 6, counted thirty days after infection, vs zone without nicotinamide, FIG. 10)?
A: Its value is “increased”.

Q: How did the “number of Puro-resistant colonies” value (Nanog-GFP MEF [1]; 4F (c-Myc), resveratrol 100 μM added Day 0 to Day 4, vs DMSO control, FIG. 6) turn out when `Oc1ccc(C=Cc2cc(O)cc(O)c2)cc1` [resveratrol] was run?
A: Its value is “significantly decreased”.

Q: And the “number of Puro-resistant colonies” value (Nanog-GFP MEF [1]; 4F (c-Myc), resveratrol 100 μM added Day 0 to Day 17, vs DMSO control, FIG. 6)?
A: Its value is “significantly decreased”.

Q: What about the “number of Puro-resistant colonies” value (Nanog-GFP MEF [1]; 4F (c-Myc), resveratrol 100 μM added on Day 4 after introduction, FIG. 6) of the same compound?
A: The value was “relatively large number”.
